Read-outs that look alike come from different tables or passages of the source.
Assays:
[1] = target: T1, MST2 (Homo sapiens, UniProt Q13188); assay: biochemical; conditions: for ΔTm at 10 µM: read-out: dTm MST2
T1 sequence (Q13188 1-491): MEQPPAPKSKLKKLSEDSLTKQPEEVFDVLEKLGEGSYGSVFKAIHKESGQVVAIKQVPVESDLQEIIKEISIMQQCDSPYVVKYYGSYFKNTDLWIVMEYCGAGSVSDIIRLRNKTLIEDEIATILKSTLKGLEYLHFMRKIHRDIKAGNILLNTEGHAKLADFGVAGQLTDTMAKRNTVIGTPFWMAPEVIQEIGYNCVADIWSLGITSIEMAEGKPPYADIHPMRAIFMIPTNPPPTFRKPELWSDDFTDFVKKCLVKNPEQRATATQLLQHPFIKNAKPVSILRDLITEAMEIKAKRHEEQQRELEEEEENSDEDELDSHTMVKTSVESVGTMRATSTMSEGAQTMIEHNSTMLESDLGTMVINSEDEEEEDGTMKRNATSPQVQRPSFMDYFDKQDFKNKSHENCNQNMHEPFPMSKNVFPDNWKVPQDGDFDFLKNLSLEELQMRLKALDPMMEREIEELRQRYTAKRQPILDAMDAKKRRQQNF

[2] = target: SIK1 (Homo sapiens, UniProt P57059); assay: NanoBRET target engagement; type: biochemical; conditions: lysed mode, HEK293T, tracer displacement
[3] = target: SIK2 (Homo sapiens, UniProt Q9H0K1); assay: NanoBRET target engagement; type: cell-based; conditions: intact mode, HEK293T, 37 °C, 2 h, tracer displacement
[4] = target: SIK3 (Homo sapiens, UniProt Q9Y2K2); assay: NanoBRET target engagement; type: cell-based; conditions: intact mode, HEK293T, 37 °C, 2 h, tracer displacement
[5] = target: T2, MST1 (Homo sapiens, UniProt Q13043); assay: biochemical; conditions: for ΔTm at 10 µM: read-out: dTm MST1
T2 sequence (Q13043 1-487): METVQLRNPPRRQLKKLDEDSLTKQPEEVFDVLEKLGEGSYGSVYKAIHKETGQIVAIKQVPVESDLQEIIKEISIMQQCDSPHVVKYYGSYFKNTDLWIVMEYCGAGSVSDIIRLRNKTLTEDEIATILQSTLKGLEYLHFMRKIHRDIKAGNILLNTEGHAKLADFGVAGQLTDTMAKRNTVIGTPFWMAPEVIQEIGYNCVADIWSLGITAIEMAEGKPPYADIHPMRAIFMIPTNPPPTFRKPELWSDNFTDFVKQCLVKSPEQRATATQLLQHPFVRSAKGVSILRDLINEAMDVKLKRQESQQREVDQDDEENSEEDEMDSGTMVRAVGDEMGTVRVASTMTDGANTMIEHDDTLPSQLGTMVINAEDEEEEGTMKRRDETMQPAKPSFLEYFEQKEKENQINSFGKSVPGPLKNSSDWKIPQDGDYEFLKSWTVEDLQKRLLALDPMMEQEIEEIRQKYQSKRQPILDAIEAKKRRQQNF

[6] = target: MST4 (Homo sapiens, UniProt Q9P289); assay: biochemical; conditions: for ΔTm at 10 µM: read-out: dTm MST4
[7] = target: T3, MST3 (Homo sapiens, UniProt Q9Y6E0); assay: biochemical
[8] = target: PAK1 (Homo sapiens, UniProt Q13153); assay: biochemical
[9] = target: T3, MST3; assay: biochemical; remark: listed apart in the source
[10] = target: Wnk1 (Homo sapiens, UniProt Q9H4A3); assay: biochemical
[11] = target: T4, EpHB4 (Homo sapiens, UniProt P54760); assay: NanoBRET target engagement; type: cell-based
T4 sequence (P54760 16-987): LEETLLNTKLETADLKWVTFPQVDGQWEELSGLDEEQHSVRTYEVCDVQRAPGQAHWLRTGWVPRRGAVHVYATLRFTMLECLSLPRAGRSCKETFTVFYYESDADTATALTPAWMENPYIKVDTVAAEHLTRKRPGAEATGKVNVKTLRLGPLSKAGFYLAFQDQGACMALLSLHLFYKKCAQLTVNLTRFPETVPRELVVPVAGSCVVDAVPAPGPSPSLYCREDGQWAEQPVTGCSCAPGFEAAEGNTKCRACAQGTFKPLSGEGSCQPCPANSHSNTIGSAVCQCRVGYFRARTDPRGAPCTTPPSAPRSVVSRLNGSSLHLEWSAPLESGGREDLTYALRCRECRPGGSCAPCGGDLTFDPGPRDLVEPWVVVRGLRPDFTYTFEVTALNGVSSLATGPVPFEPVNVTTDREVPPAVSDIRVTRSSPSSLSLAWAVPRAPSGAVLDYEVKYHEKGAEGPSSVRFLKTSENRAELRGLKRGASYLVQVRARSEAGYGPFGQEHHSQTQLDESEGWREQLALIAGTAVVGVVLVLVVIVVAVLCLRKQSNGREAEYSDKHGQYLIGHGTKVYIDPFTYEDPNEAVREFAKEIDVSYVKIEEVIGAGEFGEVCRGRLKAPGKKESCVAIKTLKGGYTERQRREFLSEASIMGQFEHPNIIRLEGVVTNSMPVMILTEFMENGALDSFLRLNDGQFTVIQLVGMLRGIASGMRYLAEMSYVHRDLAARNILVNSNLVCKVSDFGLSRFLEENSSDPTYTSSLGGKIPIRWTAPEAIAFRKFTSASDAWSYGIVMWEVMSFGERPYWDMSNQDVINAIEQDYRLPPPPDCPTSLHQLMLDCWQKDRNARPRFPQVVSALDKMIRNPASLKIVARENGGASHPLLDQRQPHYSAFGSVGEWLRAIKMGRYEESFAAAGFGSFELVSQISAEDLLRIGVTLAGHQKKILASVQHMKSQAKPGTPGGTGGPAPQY

[12] = target: T2, MST1; assay: biochemical

Sequence of SIK2 (Q9H0K1 whole entry): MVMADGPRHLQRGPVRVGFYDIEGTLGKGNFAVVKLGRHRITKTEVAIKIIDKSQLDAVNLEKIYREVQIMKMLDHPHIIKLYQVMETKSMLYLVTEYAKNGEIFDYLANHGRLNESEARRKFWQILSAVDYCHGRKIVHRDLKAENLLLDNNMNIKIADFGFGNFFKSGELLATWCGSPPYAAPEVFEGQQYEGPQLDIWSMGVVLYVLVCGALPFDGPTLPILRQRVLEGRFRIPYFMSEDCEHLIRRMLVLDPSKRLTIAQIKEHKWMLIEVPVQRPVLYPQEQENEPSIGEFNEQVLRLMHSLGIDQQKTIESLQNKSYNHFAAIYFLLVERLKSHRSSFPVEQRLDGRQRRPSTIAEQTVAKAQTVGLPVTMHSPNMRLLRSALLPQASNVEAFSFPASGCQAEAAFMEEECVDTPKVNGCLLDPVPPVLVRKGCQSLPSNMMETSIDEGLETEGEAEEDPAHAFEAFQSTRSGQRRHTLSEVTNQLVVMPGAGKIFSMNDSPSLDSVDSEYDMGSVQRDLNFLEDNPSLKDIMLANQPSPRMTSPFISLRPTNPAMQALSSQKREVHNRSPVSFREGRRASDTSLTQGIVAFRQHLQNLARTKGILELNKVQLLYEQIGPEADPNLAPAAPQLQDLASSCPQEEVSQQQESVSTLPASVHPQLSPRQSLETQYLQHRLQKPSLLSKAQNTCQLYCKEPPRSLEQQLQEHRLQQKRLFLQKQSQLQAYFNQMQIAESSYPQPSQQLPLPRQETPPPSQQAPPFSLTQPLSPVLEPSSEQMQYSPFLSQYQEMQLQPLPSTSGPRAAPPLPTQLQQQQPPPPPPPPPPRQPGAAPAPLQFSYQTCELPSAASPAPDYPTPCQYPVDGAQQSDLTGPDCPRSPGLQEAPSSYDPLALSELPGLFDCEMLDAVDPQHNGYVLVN
Sequence of Wnk1 (Q9H4A3 whole entry): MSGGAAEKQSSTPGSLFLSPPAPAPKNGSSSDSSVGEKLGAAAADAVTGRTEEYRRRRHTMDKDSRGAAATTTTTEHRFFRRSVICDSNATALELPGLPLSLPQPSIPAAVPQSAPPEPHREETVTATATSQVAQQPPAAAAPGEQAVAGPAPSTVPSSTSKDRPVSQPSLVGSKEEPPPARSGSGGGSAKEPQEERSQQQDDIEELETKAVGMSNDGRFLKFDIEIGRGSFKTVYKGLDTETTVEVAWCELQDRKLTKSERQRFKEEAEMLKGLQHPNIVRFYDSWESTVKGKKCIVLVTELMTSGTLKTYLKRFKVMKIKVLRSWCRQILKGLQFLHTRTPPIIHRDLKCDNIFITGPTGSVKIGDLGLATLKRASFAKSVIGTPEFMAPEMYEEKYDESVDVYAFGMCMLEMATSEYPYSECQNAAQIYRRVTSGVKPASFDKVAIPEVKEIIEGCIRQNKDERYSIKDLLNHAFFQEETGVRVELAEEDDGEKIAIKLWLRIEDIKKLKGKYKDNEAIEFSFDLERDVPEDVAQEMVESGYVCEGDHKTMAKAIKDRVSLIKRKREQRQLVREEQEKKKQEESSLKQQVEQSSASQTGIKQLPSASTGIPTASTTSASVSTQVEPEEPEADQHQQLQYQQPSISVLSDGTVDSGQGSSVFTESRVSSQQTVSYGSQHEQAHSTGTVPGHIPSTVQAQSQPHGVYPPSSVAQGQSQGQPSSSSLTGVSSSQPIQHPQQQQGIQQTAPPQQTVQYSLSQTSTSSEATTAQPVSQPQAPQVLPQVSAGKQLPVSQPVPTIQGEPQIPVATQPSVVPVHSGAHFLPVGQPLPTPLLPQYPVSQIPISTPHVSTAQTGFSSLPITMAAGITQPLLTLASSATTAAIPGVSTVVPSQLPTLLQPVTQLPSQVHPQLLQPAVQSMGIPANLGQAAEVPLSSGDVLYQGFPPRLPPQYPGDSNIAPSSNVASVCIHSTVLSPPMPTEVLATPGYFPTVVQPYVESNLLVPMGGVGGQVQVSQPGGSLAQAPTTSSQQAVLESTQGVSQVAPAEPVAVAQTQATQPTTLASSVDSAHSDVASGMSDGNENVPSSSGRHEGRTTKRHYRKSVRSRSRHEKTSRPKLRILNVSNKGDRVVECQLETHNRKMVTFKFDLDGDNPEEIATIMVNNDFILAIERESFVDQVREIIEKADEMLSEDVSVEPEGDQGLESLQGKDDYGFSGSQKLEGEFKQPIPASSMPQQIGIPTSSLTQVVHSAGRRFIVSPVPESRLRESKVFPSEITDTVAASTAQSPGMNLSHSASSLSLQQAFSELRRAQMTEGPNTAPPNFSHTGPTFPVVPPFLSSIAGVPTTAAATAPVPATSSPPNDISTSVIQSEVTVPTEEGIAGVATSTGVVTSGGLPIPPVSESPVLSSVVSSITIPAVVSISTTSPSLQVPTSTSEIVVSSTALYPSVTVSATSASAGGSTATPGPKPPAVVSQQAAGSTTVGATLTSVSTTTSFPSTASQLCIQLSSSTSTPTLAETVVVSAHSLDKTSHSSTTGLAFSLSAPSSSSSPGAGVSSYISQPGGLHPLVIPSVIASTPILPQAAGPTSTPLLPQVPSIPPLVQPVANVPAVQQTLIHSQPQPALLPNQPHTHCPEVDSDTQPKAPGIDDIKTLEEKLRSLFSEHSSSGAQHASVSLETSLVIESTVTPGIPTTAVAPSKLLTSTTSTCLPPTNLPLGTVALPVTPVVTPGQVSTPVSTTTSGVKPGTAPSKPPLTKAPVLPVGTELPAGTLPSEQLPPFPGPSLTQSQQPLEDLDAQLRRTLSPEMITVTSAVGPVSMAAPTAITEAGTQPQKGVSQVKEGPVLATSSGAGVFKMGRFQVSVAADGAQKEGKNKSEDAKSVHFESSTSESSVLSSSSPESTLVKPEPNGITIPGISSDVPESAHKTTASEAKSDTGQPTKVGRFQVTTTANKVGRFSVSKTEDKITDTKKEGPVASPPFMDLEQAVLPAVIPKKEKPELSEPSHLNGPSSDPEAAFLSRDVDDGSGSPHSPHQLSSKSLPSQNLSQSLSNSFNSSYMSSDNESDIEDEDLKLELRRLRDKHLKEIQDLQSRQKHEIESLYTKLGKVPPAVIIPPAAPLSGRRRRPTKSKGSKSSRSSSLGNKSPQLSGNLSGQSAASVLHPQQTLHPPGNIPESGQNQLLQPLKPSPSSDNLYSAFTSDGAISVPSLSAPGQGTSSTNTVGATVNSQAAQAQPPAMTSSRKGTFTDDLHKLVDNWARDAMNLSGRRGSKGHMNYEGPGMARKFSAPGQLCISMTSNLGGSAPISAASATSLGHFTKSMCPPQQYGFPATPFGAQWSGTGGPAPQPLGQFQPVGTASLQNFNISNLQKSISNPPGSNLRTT
Sequence of MST4 (Q9P289 whole entry): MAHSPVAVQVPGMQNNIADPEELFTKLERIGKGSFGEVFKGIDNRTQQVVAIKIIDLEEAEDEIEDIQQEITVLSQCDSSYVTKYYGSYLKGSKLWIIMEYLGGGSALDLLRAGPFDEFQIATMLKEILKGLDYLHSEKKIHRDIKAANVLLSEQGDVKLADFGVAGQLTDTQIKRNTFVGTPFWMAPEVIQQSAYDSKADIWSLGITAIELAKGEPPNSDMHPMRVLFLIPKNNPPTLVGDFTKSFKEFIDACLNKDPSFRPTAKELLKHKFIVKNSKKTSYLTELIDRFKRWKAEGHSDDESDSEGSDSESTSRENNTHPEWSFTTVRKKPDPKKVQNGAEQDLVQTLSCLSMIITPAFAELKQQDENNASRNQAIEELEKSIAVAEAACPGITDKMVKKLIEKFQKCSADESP
T3 sequence (Q9Y6E0 whole entry): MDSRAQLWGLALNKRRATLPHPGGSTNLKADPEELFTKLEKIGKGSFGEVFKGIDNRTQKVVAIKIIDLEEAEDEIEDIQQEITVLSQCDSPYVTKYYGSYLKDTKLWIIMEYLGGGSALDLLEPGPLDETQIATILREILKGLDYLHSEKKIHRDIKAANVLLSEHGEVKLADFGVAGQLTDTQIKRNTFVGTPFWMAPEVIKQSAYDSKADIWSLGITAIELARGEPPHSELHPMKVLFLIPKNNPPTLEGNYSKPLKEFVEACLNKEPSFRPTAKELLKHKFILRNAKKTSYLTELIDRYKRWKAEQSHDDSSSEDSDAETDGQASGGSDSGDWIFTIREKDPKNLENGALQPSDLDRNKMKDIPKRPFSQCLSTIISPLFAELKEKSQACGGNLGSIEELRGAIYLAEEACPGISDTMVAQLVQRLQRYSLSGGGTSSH
Sequence of PAK1 (Q13153 whole entry): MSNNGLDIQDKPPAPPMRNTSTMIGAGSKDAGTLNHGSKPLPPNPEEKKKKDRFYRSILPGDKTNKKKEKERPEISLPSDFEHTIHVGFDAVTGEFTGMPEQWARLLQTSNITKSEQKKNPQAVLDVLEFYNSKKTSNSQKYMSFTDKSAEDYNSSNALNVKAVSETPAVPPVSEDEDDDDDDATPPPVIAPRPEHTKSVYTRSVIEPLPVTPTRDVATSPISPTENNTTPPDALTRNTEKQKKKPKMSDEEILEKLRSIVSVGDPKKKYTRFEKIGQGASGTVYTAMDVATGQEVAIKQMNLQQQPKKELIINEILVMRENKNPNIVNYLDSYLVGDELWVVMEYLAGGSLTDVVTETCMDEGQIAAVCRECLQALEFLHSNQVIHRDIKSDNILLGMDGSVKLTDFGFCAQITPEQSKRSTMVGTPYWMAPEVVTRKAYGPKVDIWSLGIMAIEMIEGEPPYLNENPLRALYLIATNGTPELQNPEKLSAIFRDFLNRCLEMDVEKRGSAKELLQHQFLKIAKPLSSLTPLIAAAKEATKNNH

Row | Compound | ΔTm at 10 µM [1] | IC50 [2] | IC50 [3] | IC50 [4] | ΔTm at 10 µM [5] | ΔTm at 10 µM [6] | further results
1 | CNc1ncc2cc(-c3cc(Br)ccc3Br)c(=O)n(CCCCN)c2n1 [compound 11, 8-(4-Aminobutyl)-6-(2,5-dibromophenyl)-2-(methylamino)pyrido[2,3-d]pyrimidin-7(8H)-one] | 1.4 °C | 429 ± 117 nM | 2700 ± 100 nM | 1200 ± 100 nM | 1.6 °C | 1.5 °C | ΔTm at 10 µM ([7]; read-out: ∆Tm 11): 1.9 °C; ΔTm at 10 µM ([8]; read-out: ∆Tm 11): 0.7 °C
2 | CNc1ncc2cc(-c3cc(C(F)(F)F)ccc3Cl)c(=O)n(CCCCN)c2n1 [compound 9, 8-(4-Aminobutyl)-6-(2-chloro-5-(trifluoromethyl)phenyl)-2-(methylamino)pyrido[2,3-d]pyrimidin-7(8H)-one] | 0.8 °C | 1000 ± 400 nM | 6100 ± 100 nM | 2500 ± 100 nM | 0.9 °C | 0.4 °C | –
3 | CNc1ncc2cc(-c3cc(Br)ccc3Cl)c(=O)n(C[C@H]3OC[C@H](N)CO3)c2n1 [compound 7, 8-(((2r,5r)-5-Amino-1,3-dioxan-2-yl)methyl)-6-(5-bromo-2-chlorophenyl)-2-(methylamino)pyrido[2,3-d]pyrimidin-7(8H)-one] | 1.5 °C | 2400 ± 1100 nM | 4400 ± 100 nM | 1000 ± 300 nM | 1.7 °C | 0.6 °C | ΔTm at 10 µM ([9]; read-out: ∆Tm 7): 0.8 °C; ΔTm at 10 µM ([10]; read-out: ∆Tm 7): 1.1 °C
4 | CNc1ncc2cc(-c3cc(Cl)ccc3Br)c(=O)n(CCCCN)c2n1 [compound 10, 8-(4-Aminobutyl)-6-(2-bromo-5-chlorophenyl)-2-(methylamino)pyrido[2,3-d]pyrimidin-7(8H)-one] | 1.4 °C | 228 ± 142 nM | 1100 ± 100 nM | 290 ± 42 nM | 1.5 °C | 1.8 °C | ΔTm at 10 µM ([7]; read-out: ∆Tm 10): 2 °C; ΔTm at 10 µM ([8]; read-out: ∆Tm 10): 0.6 °C
5 | CNc1ncc2cc(-c3cc(Cl)ccc3Cl)c(=O)n(CCCCN)c2n1 [compound 8, 8-(4-Aminobutyl)-6-(2,5-dichlorophenyl)-2-(methylamino)pyrido[2,3-d]pyrimidin-7(8H)-one] | 1.4 °C | 277 ± 123 nM | 665 ± 40 nM | 113 ± 95 nM | 1.6 °C | 2 °C | IC50 [11]: 188 ± 17 nM; ΔTm at 10 µM ([7]; read-out: ∆Tm 8): 1.9 °C; ΔTm at 10 µM ([8]; read-out: ∆Tm 8): 0.7 °C
6 | CNc1ncc2cc(-c3ccc(-c4cccc(C)n4)cc3Cl)c(=O)n(CC3OCC(N)CO3)c2n1 (stereo not shown) [compound 2, G-5555] | – | – | – | – | – | – | dTm MST2 ([1]; 10 µM, binder): 5.0 °C; ∆Tm G-5555 (2) ([12]; 10 µM, binder): 4.5 degC; ∆Tm G-5555 (2) ([9]; 10 µM, binder): 7.5 degC; ∆Tm G-5555 (2) ([10]; 10 µM, binder): 2.4 degC; dTm MST1 ([5]; 10 µM, binder): 4.2 °C; dTm MST4 ([6]; 10 µM, binder): 6.4 °C
7 | CNc1ncc2cc(-c3cc(Br)ccc3Cl)c(=O)n(CCCCN)c2n1 [compound 6, 8-(4-Aminobutyl)-6-(5-bromo-2-chlorophenyl)-2-(methylamino)pyrido[2,3-d]pyrimidin-7(8H)-one] | 2.5 °C | 239 ± 46 nM | 1400 ± 100 nM | 352 ± 11 nM | 1.9 °C | 2.2 °C | ΔTm at 10 µM ([9]; read-out: ∆Tm 6): 2.7 °C; ΔTm at 10 µM ([10]; read-out: ∆Tm 6): 0 °C

Further lines, with some results ahead:

Row | ΔTm at 10 µM [1] | IC50 [2] | IC50 [3] | IC50 [4] | ΔTm at 10 µM [5] | ΔTm at 10 µM [6] | Compound | further results
8 | 5.2 °C | 6 ± 2 nM | 31 ± 1 nM | 4 ± 0.1 nM | 2.8 °C | 7.6 °C | CNc1ncc2cc(-c3cc(F)c(-c4cccc(C)n4)cc3F)c(=O)n(CCCCN)c2n1 [compound 12, 8-(4-Aminobutyl)-6-(2,5-difluoro-4-(6-methylpyridin-2-yl)phenyl)-2-(methylamino)pyrido[2,3-d]pyrimidin-7(8H)-one] | –
9 | 0.6 °C | 72 ± 11 nM | 89 ± 2 nM | 18 ± 2 nM | 0.9 °C | 0.9 °C | CNc1ncc2cc(-c3cc(F)ccc3F)c(=O)n(CCCCN)c2n1 [compound 5, 8-(4-Aminobutyl)-6-(2,5-difluorophenyl)-2-(methylamino)pyrido[2,3-d]pyrimidin-7(8H)-one] | IC50 ([11]; intact mode, HEK293T, 37 °C, 2 h, tracer displacement): 607 ± 37 nM; ΔTm at 10 µM ([12]; read-out: ∆Tm MR22 (5)): -0.3 °C; ΔTm at 10 µM ([9]; read-out: ∆Tm MR22 (5)): 1.6 °C; ΔTm at 10 µM ([10]; read-out: ∆Tm MR22 (5)): -0.1 °C
10 | 2.2 °C | 20 ± 7 nM | 74 ± 2 nM | 25 ± 3 nM | 1.9 °C | 2.6 °C | CNc1ncc2cc(-c3ccccc3Cl)c(=O)n(CCCCN)c2n1 [compound 4, 8-(4-Aminobutyl)-6-(2-chlorophenyl)-2-(methylamino)pyrido[2,3-d]pyrimidin-7(8H)-one] | IC50 [11]: 50 ± 12 nM; ΔTm at 10 µM ([12]; read-out: ∆Tm MR21 (4)): 1.5 °C; ΔTm at 10 µM ([9]; read-out: ∆Tm MR21 (4)): 4.1 °C; ΔTm at 10 µM ([10]; read-out: ∆Tm MR21 (4)): -0.4 °C

— article doi:10.1101/2023.03.24.534094v2 (biorxiv, 2023)
